Results published in the supplement of paper PMC8149375.

What was measured:
Details in all cases: treatment: drug alone; 5 days
TK-10 [1] = test: AUC of dose-response viability curve, drug alone (arbitrary (AUC of normalised viability)); higher = less growth inhibition
Procedure: (§1)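 Primary HTS: 8 RCC cell lines treated with 8 doses (up to 10 uM) of each library drug alone for 5 days; viability read by CellTiter-Glo and normalised to DMSO. GI50 was fitted with XLfit (4-parameter), AUC is the area under the dose-response curve, and minimum viability is the lowest fraction of DMSO viability across doses.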

SN12C [2] = test: as above
Procedure: as §1

769-P [3] = test: as above
Procedure: as §1

ACHN [4] = test: as above
Procedure: as §1

CAKI-1 [5] = test: as above
Procedure: as §1

786-O [6] = test: as above
Procedure: as §1

UO-31 [7] = test: as above
Procedure: as §1

A498 [8] = test: as above
Procedure: as §1

TK-10 [9] = test: GI50, drug alone; higher = less potent
Procedure: as §1

SN12C [10] = test: GI50, drug alone; higher = less potent
Procedure: as §1

769-P [11] = test: GI50, drug alone; higher = less potent
Procedure: as §1

ACHN [12] = test: GI50, drug alone; higher = less potent
Procedure: as §1

CAKI-1 [13] = test: GI50, drug alone; higher = less potent
Procedure: as §1

786-O [14] = test: GI50, drug alone; higher = less potent
Procedure: as §1

UO-31 [15] = test: GI50, drug alone; higher = less potent
Procedure: as §1

A498 [16] = test: GI50, drug alone; higher = less potent
Procedure: as §1

TK-10 [17] = test: minimum viability across doses, drug alone, relative to DMSO (fraction); higher = less growth inhibition
Procedure: as §1

SN12C [18] = test: as above
Procedure: as §1

769-P [19] = test: as above
Procedure: as §1

ACHN [20] = test: as above
Procedure: as §1

CAKI-1 [21] = test: as above
Procedure: as §1

786-O [22] = test: as above
Procedure: as §1

UO-31 [23] = test: as above
Procedure: as §1

A498 [24] = test: as above
Procedure: as §1

Row | Structure (SMILES) | AUC of dose-response viability curve (TK-10 [1]) | AUC of dose-response viability curve (SN12C [2]) | AUC of dose-response viability curve (769-P [3]) | AUC of dose-response viability curve (ACHN [4]) | AUC of dose-response viability curve (CAKI-1 [5]) | AUC of dose-response viability curve (786-O [6]) | AUC of dose-response viability curve (UO-31 [7]) | AUC of dose-response viability curve (A498 [8]) | GI50, drug alone (TK-10 [9]) | GI50, drug alone (SN12C [10]) | GI50, drug alone (769-P [11]) | GI50, drug alone (ACHN [12]) | GI50, drug alone (CAKI-1 [13]) | GI50, drug alone (786-O [14]) | GI50, drug alone (UO-31 [15]) | GI50, drug alone (A498 [16]) | minimum viability across doses (TK-10 [17]) | minimum viability across doses (SN12C [18]) | minimum viability across doses (769-P [19]) | minimum viability across doses (ACHN [20]) | minimum viability across doses (CAKI-1 [21]) | minimum viability across doses (786-O [22]) | minimum viability across doses (UO-31 [23]) | minimum viability across doses (A498 [24])
1 | COc1ccc(-c2cc3c(C)nc(N)nc3n([C@H]3CC[C@H](OCCO)CC3)c2=O)cn1 | 1.72 | 1.98 | 2.05 | 1.79 | 1.78 | 1.76 | 2.06 | 2.91 | 0.153 µM | 0.291 µM | 0.386 µM | 0.179 µM | 0.206 µM | 0.163 µM | 0.255 µM | 1.02 µM | 0.0289 | 0.0766 | 0.0177 | 0.067 | 0.0249 | 0.00335 | 0.00736 | 0.193
2 | COc1ccc2cc(-c3[nH]c(-c4ccc(S(C)=O)cc4)nc3-c3ccncc3)ccc2c1 (configuration not stated) [Tie2 kinase inhibitor] | 3.35 | 3.4 | 3.4 | 3.08 | 3.54 | 3.15 | 5.91 | 4.67 | > 10 µM | > 10 µM | > 10 µM | > 10 µM | > 10 µM | > 10 µM | > 10 µM | > 10 µM | 0.799 | 0.755 | 0.951 | 0.762 | 0.864 | 0.52 | 1.2 | 1.08
3 | CCN(CC)CCCCNc1ncc2cc(-c3cc(OC)cc(OC)c3)c(NC(=O)NC(C)(C)C)nc2n1 | 2.69 | 2.73 | 3.21 | 2.2 | 2.27 | 2.06 | 3.7 | 3.77 | 4.78 µM | 8.23 µM | 9.27 µM | 0.779 µM | 0.614 µM | 2.36 µM | 7.93 µM | 6.94 µM | 0.348 | 0.338 | 0.461 | 0.0868 | 0.074 | 0.00314 | 0.128 | 0.265
4 | Cn1cnc(N)c2ncnc1-2 [3-Methyladenine] | 2.77 | 3.65 | 3.6 | 3.25 | 3.74 | 2.67 | 4.92 | 3.89 | > 10 µM | > 10 µM | > 10 µM | > 10 µM | > 10 µM | > 10 µM | > 10 µM | > 10 µM | 0.696 | 0.961 | 0.947 | 0.879 | 0.991 | 0.618 | 1.12 | 1.04
5 | CS(=O)(=O)O.N#CC1(c2ccc(NC(=O)c3cccnc3NCc3ccncc3)cc2)CCCC1 [Apatinib (YN968D1)] | 2.84 | 3.39 | 3.53 | 3.21 | 2.93 | 3.23 | 5.2 | 4.78 | > 10 µM | > 10 µM | > 10 µM | > 10 µM | > 10 µM | > 10 µM | 8.33 µM | > 10 µM | 0.739 | 0.799 | 0.901 | 0.676 | 0.666 | 0.648 | 0.126 | 1.02
6 | COC(=O)Nc1ccc(-c2nc(N3CCOCC3)c3cnn(C4CCN(C(=O)OC)CC4)c3n2)cc1 [WYE-354] | 2.35 | 2.54 | 2.75 | 2.21 | 2.49 | 1.9 | 3.63 | 3.73 | 1.57 µM | 1.89 µM | 2.27 µM | 0.611 µM | 1.26 µM | 0.476 µM | 2.57 µM | 6.59 µM | 0.293 | 0.274 | 0.165 | 0.167 | 0.127 | 0.346 | 0.0127 | 0.409
7 | COc1cc2c(Nc3ccc(NC(=O)c4ccccc4)cc3)ncnc2cc1OCCCN1CCOCC1 | 2.86 | 2.89 | 3.12 | 2.57 | 3.03 | 2.52 | 4.2 | 4.49 | 4.2 µM | > 10 µM | 5.72 µM | 3.42 µM | 2.63 µM | 2 µM | 9.01 µM | > 10 µM | 0.243 | 0.537 | 0.24 | 0.152 | 0.108 | 0.00931 | 0.175 | 0.722
8 | CCc1cccc(CC)c1NC(=O)N1Cc2[nH]nc(NC(=O)c3ccc(N4CCN(C)CC4)cc3)c2C1 | 2.92 | 2.76 | 3.41 | 2.85 | 2.76 | 2.21 | 3.85 | 3.29 | 5.38 µM | 2.15 µM | > 10 µM | 3.39 µM | 2.92 µM | 0.915 µM | > 10 µM | > 10 µM | 0.336 | 0.238 | 0.87 | 0.233 | 0.262 | 0.0395 | 0.811 | 0.679
9 | CNC(=O)c1cc(Oc2ccc(NC(=O)Nc3ccc(Cl)c(C(F)(F)F)c3)c(F)c2)ccn1 [Regorafenib (BAY 73-4506)] | 3.02 | 3.16 | 3.39 | 3.38 | 3.16 | 2.63 | 3.11 | 3.76 | > 10 µM | 8.24 µM | > 10 µM | 7.85 µM | 7.35 µM | > 10 µM | 2.55 µM | > 10 µM | 0.536 | 0.387 | 0.894 | 0.39 | 0.363 | 0.598 | 0.186 | 0.883
10 | CC(C)(O)CC(=O)NCCn1ccc2ncnc(Nc3ccc(Oc4cccc(C(F)(F)F)c4)c(Cl)c3)c21 [TAK-285] | 2.5 | 3.17 | 3.04 | 2.78 | 3.14 | 2.42 | 4.9 | 3.69 | 3.95 µM | > 10 µM | 6.69 µM | 4.12 µM | > 10 µM | > 10 µM | > 10 µM | > 10 µM | 0.412 | 0.81 | 0.407 | 0.421 | 0.584 | 0.524 | 1.21 | 0.852
11 | COCC(=O)NC/C=C/c1ccc2ncnc(Nc3ccc(Oc4ccc(C)nc4)c(C)c3)c2c1 | 3.07 | 3.1 | 3.37 | 3.39 | 3.51 | 2.92 | 5.09 | 4.6 | > 10 µM | > 10 µM | > 10 µM | > 10 µM | > 10 µM | > 10 µM | > 10 µM | > 10 µM | 0.661 | 0.739 | 0.878 | 0.61 | 0.937 | 0.717 | 1.11 | 1.07
12 | Cl.N=C(N)NC(=N)NCCc1ccccc1 [Phenformin hydrochloride] | 2.95 | 2.87 | 3.29 | 3.53 | 3.22 | 2.31 | 3.11 | 3.42 | 6.89 µM | 5.25 µM | > 10 µM | > 10 µM | > 10 µM | 1.5 µM | 3.09 µM | > 10 µM | 0.333 | 0.0912 | 0.841 | 0.682 | 0.821 | 0.116 | 0.0295 | 0.514
13 | O=c1[nH]c2ccc(Cl)cc2c(N[C@@H]2CN3CCC2CC3)c1-c1nc2ccccc2[nH]1 [CHIR-124] | 1.68 | 2.32 | 1.61 | 1.15 | 1.73 | 0.832 | 1.4 | 2.43 | 0.129 µM | 1.19 µM | 0.129 µM | 0.0403 µM | 0.165 µM | 0.0365 µM | 0.0832 µM | 0.498 µM | 0.168 | 0.0133 | 0.017 | 0.0184 | 0.0814 | 0.0053 | 0.0103 | 0.0252
14 | CC1(C)CNc2cc(NC(=O)c3cccnc3NCc3ccncc3)ccc21.O=P(O)(O)O.O=P(O)(O)O [Motesanib Diphosphate] | 3.09 | 3.19 | 3.53 | 3.4 | 3.36 | 3.26 | 4.68 | 3.77 | > 10 µM | > 10 µM | > 10 µM | > 10 µM | > 10 µM | > 10 µM | > 10 µM | > 10 µM | 0.757 | 0.832 | 0.943 | 0.818 | 0.756 | 0.777 | 0.976 | 0.86
15 | COc1cc(CCc2cc(NC(=O)c3ccc(N4C[C@@H](C)N[C@@H](C)C4)cc3)n[nH]2)cc(OC)c1 [AZD4547] | 3.11 | 3.1 | 3.57 | 2.69 | 2.59 | 3.17 | 5.09 | 3.96 | 9.57 µM | 5.18 µM | > 10 µM | 2.38 µM | 1.6 µM | 7.22 µM | 9.97 µM | > 10 µM | 0.51 | 0.256 | 0.9 | 0.165 | 0.222 | 0.202 | 0.68 | 0.877
16 | Cc1cc(Nc2cc(N3CCN(C)CC3)nc(/C=C/c3ccccc3)n2)n[nH]1.O=C(O)[C@H](O)[C@@H](O)C(=O)O [ENMD-2076] | 2.31 | 2.46 | 2.64 | 2.1 | 2.02 | 1.82 | 3.01 | 3.06 | 1.15 µM | 1.09 µM | 2 µM | 0.344 µM | 0.456 µM | 0.518 µM | 1.56 µM | 4.11 µM | 0.146 | 0.162 | 0.227 | 0.109 | 0.038 | 0.0558 | 0.0165 | 0.427
17 | CCCCCCCCCCCCc1ccc(S(=O)(=O)Nc2nncs2)cc1 [PHT-427] | 2.94 | 3.22 | 3.26 | 3.08 | 3.62 | 2.32 | 4.78 | 4.29 | > 10 µM | > 10 µM | > 10 µM | > 10 µM | > 10 µM | > 10 µM | > 10 µM | > 10 µM | 0.797 | 0.858 | 0.855 | 0.824 | 0.959 | 0.512 | 1.14 | 1.05
18 | CCS(=O)(=O)c1cccc(-c2cc(C(=O)NC3CCN(C)CC3)c(C)c3[nH]c4ncc(C)cc4c23)c1 [TAK-901] | 2.27 | 1.98 | 3.25 | 2.33 | 2.65 | 1.81 | 4.08 | 3.09 | 0.836 µM | 0.383 µM | > 10 µM | 0.708 µM | 1.32 µM | 0.381 µM | 8.94 µM | 0.956 µM | 0.0432 | 0.00544 | 0.521 | 0.0394 | 0.0277 | 0.00628 | 0.21 | 0.0141
